Measurements: US9789095B2, “Inhibitors of calcium-activated chloride channels” (The Regents of the University of California, priority 2007, dated 2017)

Each molecule was assayed on calcium-activated chloride channel (CaCC) (assay: YFP fluorescence plate reader iodide influx assay in HT-29 cells (ATP/carbachol)). Conditions: class A aminothiophenes, semi-quantitative.
Format: cell-based, human
Method: Screening was performed using a customized screening system (BECKMAN COULTER, Inc., Indianapolis, Ind.) consisting of the SAGIAN Core system integrated with SAMI software, and equipped with an ORCA arm for labware transport, a 96-channel head BIOMEK FX, CO2 incubator, plate washer, bar code reader, delidding station, and two FLUOstar OPTIMA fluorescence plate readers (BMG Labtechnologies, Durham, N.C.), each equipped with syringe pumps and custom excitation/emission filters (500/544 nm; CHROMA, Brattleboro, Vt.).
HT-29 cells expressing YFP-H148Q/I152L were plated in 96-well plates at 70% confluence. Plates were incubated overnight at 37° C., 5% CO2 and then the growth medium was replaced with fresh growth medium. […] YFP fluorescence was measured 1 s before and for 30 s after addition of a PBS-iodide solution (PBS that has 100 mM chloride replaced by iodide) containing carbachol and ATP (100 μM each). Each 96-well plate contained ‘positive’ controls (DMSO vehicle without agonists or test compounds) and ‘negative’ controls (DMSO vehicle with agonists but without test compounds). In some experiments solutions included (individually or in combination): carbachol, ATP, or histamine (at 50, 100, 150 or 200 μM), calcimycin (10 μM), thapsigargin (2 μM) and CFTRinh-172 (20 μM).
Iodide influx (d[I^−]/dt at t=0) was computed from fluorescence time course data by single exponential regression, as described (Ma et al., J. Clin. Invest. 110:1651-8 (2002)). Percentage inhibition was computed as: percentage inhibition=100×(Slopenegative control−Slopetest compound)/(Slopenegative control−Slopepositive control).

Which “% inhibition at 25 μM” value does the source give for CCOC(=O)c1c(NC(=O)C2CCCCC2C(=O)O)sc2c1CCC(C(C)(C)C)C2 (centres unmarked) [CaCCinh-A08, 2-(6-tert-butyl-3-(ethoxycarbonyl)-4,5,6,7-tetrahydrobenzo[b]thiophen-2-ylcarbamoyl)cyclohexanecarboxylic acid] here?
Its value is 80%.

For CCOC(=O)c1c(NC(=O)CCC(=O)O)sc2c1CCC(C(C)(C)C)C2 (centres unmarked) [CaCCinh-A06, 4-(6-tert-butyl-3-(ethoxycarbonyl)-4,5,6,7-tetrahydrobenzo[b]thiophen-2-ylamino)-4-oxobutanoic acid], which “% inhibition at 25 μM” value is on record?
Its value is 75%.

Cc1ccccc1C(=O)Nc1sc2c(c1C(=O)O)CCC(C(C)(C)C)C2 (centres unmarked) [CaCCinh-A02, 6-tert-butyl-2-(2-methylbenzamido)-4,5,6,7-tetrahydrobenzo[b]thiophene-3-carboxylic acid] was tested. Which “% inhibition at 25 μM” value did it give?
The value was 95%.

With CC(C)(C)C1CCc2c(sc(NC(=O)c3ccccc3)c2C(=O)O)C1 (centres unmarked) [CaCCinh-A04, 2-benzamido-6-tert-butyl-4,5,6,7-tetrahydrobenzo[b]thiophene-3-carboxylic acid] as the molecule, how does the “% inhibition at 25 μM” value read?
Its value is 85%.

With COC(=O)c1c(NC(=O)CCCC(=O)O)sc2c1CCC(C(C)(C)C)C2 (centres unmarked) [CaCCinh-A09, 5-(6-tert-butyl-3-(methoxycarbonyl)-4,5,6,7-tetrahydrobenzo[b]thiophen-2-ylamino)-5-oxopentanoic acid] as the molecule, how does the “% inhibition at 25 μM” value read?
Its value is 45%.

How did the “% inhibition at 25 μM” value turn out when O=C(Nc1sc2c(c1C(=O)O)CCCCC2)c1ccccc1 [CaCCinh-A13, 2-benzamido-5,6,7,8-tetrahydro-4H-cyclohepta[b]thiophene-3-carboxylic acid] was run?
The value was 27%.

Which “% inhibition at 25 μM” value does the source give for CCOC(=O)c1c(NC(=O)C2CCCCC2C(=O)O)sc2c1CCC(C(C)(C)CC)C2 (centres unmarked) [CaCCinh-A10, 2-(3-(ethoxycarbonyl)-6-tert-pentyl-4,5,6,7-tetrahydrobenzo[b]thiophen-2-ylcarbamoyl)cyclohexanecarboxylic acid] here?
Its value is 75%.

How did the “% inhibition at 25 μM” value turn out when Cc1ccc(C(=O)Nc2sc3c(c2C(=O)O)CCCCC3)cc1 [CaCCinh-A12, 2-(4-methylbenzamido)-5,6,7,8-tetrahydro-4H-cyclohepta[b]thiophene-3-carboxylic acid] was run?
Its value is 15%.

How did the “% inhibition at 25 μM” value turn out when CC(C)(C)C1CCc2c(sc(NC(=O)c3ccccc3Cl)c2C(=O)O)C1 (centres unmarked) [CaCCinh-A05, 6-tert-butyl-2-(2-chlorobenzamido)-4,5,6,7-tetrahydrobenzo[b]thiophene-3-carboxylic acid] was run?
Its value is 75%.

Which “% inhibition at 25 μM” value does the source give for Cc1cccc(NC(=O)c2c(NC(=O)CCC(=O)O)sc3c2CCC(C(C)(C)C)C3)c1 (centres unmarked) [CaCCinh-A16, 4-(6-tert-butyl-3-(m-tolylcarbamoyl)-4,5,6,7-tetrahydrobenzo[b]thiophen-2-ylamino)-4-oxobutanoic acid] here?
The value was 42%.

Which “% inhibition at 25 μM” value does the source give for CC(C)(C)C1CCc2c(sc(NC(=O)c3cccc(Cl)c3)c2C(=O)O)C1 (centres unmarked) [CaCCinh-A03, 6-tert-butyl-2-(3-chlorobenzamido)-4,5,6,7-tetrahydrobenzo[b]thiophene-3-carboxylic acid] here?
The value was 50%.

With COc1ccc(NC(=O)c2c(NC(=O)CCC(=O)O)sc3c2CCC(C(C)(C)C)C3)cc1 (centres unmarked) [CaCCinh-A18, 4-(6-tert-butyl-3-(4-methoxyphenylcarbamoyl)-4,5,6,7-tetrahydrobenzo[b]thiophen-2-ylamino)-4-oxobutanoic acid] as the molecule, how does the “% inhibition at 25 μM” value read?
The value was 35%.

With Cc1cccc(C(=O)Nc2sc3c(c2C(=O)O)CCCC3)c1 [CaCCinh-A17, 2-(3-methylbenzamido)-4,5,6,7-tetrahydrobenzo[b]thiophene-3-carboxylic acid] as the molecule, how does the “% inhibition at 25 μM” value read?
Its value is 07%.

With COC(=O)c1c(NC(=O)CCC(=O)O)sc2c1CCC(C(C)(C)C)C2 (centres unmarked) [CaCCinh-A11, 4-(6-tert-butyl-3-(methoxycarbonyl)-4,5,6,7-tetrahydrobenzo[b]thiophen-2-ylamino)-4-oxobutanoic acid] as the molecule, how does the “% inhibition at 25 μM” value read?
The value was 81%.

Which “% inhibition at 25 μM” value does the source give for CCOC(=O)c1c(NC(=O)/C=C/C(=O)O)sc2c1CCC(C(C)(C)C)C2 (centres unmarked) [CaCCinh-A07, (E)-4-(6-tert-butyl-3-(ethoxycarbonyl)-4,5,6,7-tetrahydrobenzo[b]thiophen-2-ylamino)-4-oxobut-2-enoic acid] here?
The value was 98%.

For COc1cccc(C(=O)Nc2sc3c(c2C(=O)O)CCCCC3)c1 [CaCCinh-A15, 2-(3-methoxybenzamido)-5,6,7,8-tetrahydro-4H-cyclohepta[b]thiophene-3-carboxylic acid], which “% inhibition at 25 μM” value is on record?
The value was 20%.

Same assay, conditions: class B aminothiazoles, semi-quantitative

With CCOc1ccc(Nc2nc(-c3ccc(C)cc3)c(CC(=O)O)s2)cc1 [CaCCinh-B11, 2-(2-(4-ethoxyphenylamino)-4-p-tolylthiazol-5-yl)acetic acid] as the molecule, how does the “% inhibition at 25 μM” value read?
Its value is 65%.

Cc1ccc(-c2nc(Nc3ccc(Br)cc3)sc2CC(=O)O)c(C)c1 [CaCCinh-B07, 2-(2-(4-bromophenylamino)-4-(2,4-dimethylphenyl)thiazol-5-yl)acetic acid] was tested. Which “% inhibition at 25 μM” value did it give?
Its value is 70%.

Cc1ccc(-c2nc(NC(=O)c3cccc(C)c3)sc2-c2ccccc2)cc1 [CaCCinh-B12, 3-methyl-N-(5-phenyl-4-p-tolylthiazol-2-yl)benzamide] was tested. Which “% inhibition at 25 μM” value did it give?
Its value is 03%.

With Cc1ccc(-c2nc(Nc3cccc(C(F)(F)F)c3)sc2CC(=O)O)cc1 [CaCCinh-B05, 2-(4-p-tolyl-2-(3-(trifluoromethyl)phenylamino)thiazol-5-yl)acetic acid] as the molecule, how does the “% inhibition at 25 μM” value read?
Its value is 60%.

How did the “% inhibition at 25 μM” value turn out when CC(C)Cc1ccc(Nc2nc(-c3ccc(Oc4ccccc4)cc3)cs2)cc1 [CaCCinh-B09, N-(4-isobutylphenyl)-4-(4-phenoxyphenyl)thiazol-2-amine] was run?
The value was 65%.

With CCNc1nc(-c2ccc(C)cc2)cs1 [CaCCinh-B13, N-ethyl-4-p-tolylthiazol-2-amine] as the molecule, how does the “% inhibition at 25 μM” value read?
Its value is 20%.

For Cc1ccc(-c2nc(Nc3ccc(Cl)cc3Cl)sc2CC(=O)O)cc1 [CaCCinh-B04, 2-(2-(2,4-dichlorophenylamino)-4-p-tolylthiazol-5-yl)acetic acid], which “% inhibition at 25 μM” value is on record?
The value was 65%.

Which “% inhibition at 25 μM” value does the source give for Cc1ccc(-c2nc(Nc3cccc(Br)c3)sc2CC(=O)O)cc1 [CaCCinh-B03, 2-(2-(3-bromophenylamino)-4-p-tolylthiazol-5-yl)acetic acid] here?
The value was 60%.

How did the “% inhibition at 25 μM” value turn out when CCCc1sc(Nc2ccc(C(=O)O)cc2)nc1-c1ccc(C)cc1C [CaCCinh-B06, 4-(4-(2,4-dimethylphenyl)-5-propylthiazol-2-ylamino)benzoic acid] was run?
The value was 100%.

COc1ccc(Nc2nc(-c3ccc(OC)cc3)c(CCC(=O)O)s2)cc1 [CaCCinh-B14, 3-(4-(4-methoxyphenyl)-2-(4-methoxyphenylamino)thiazol-5-yl)propanoic acid] was tested. Which “% inhibition at 25 μM” value did it give?
Its value is 18%.

How did the “% inhibition at 25 μM” value turn out when Cc1ccc(-c2nc(Nc3cccc(C(F)(F)F)c3)sc2CC(=O)O)c(C)c1 [CaCCinh-B08, 2-(4-(2,4-dimethylphenyl)-2-(3-(trifluoromethyl)phenylamino)thiazol-5-yl)acetic acid] was run?
Its value is 75%.

For Cc1ccc(-c2nc(Nc3ccc(C)c(Cl)c3)sc2CC(=O)O)cc1 [CaCCinh-B02, 2-(2-(3-chloro-4-methylphenylamino)-4-p-tolylthiazol-5-yl)acetic acid], which “% inhibition at 25 μM” value is on record?
The value was 40%.

For FC(F)(F)c1cccc(-c2csc(Nc3ccc(C4CCCCC4)cc3)n2)c1 [CaCCinh-B10, N-(4-cyclohexylphenyl)-4-(3-(trifluoromethyl)phenyl)thiazol-2-amine], which “% inhibition at 25 μM” value is on record?
Its value is 55%.
